From US20120283175A1, “ANTIBACTERIAL COMPOSITIONS” (Achaogen, Inc., priority 2009, published 2012)
≈ marks a conversion by molar mass, not a printed value. Where “and” joins values, the source holds several entries; their conditions need not be identical. Identical values can stand only once. Entries after “also recorded” stand apart in the source; their conditions may differ. Like-named read-outs stand apart in the source and are kept apart here.

Legend:
K. pneumo. (ATCC43816) = assay: Neutropenic thigh in vivo efficacy model (mice); set-up: species or system Klebsiella pneumoniae; Static Dose, LpxC cmpd / Static Dose, LpxC in combination: unit not given here
Source text: (§1) The model was run essentially as described by Craig and others (see Gudmundsson et al., “Murine Thigh Infection Model,” Handbook of Animal Models of Infection, M. A. Sande and O. Zak, Eds.; London: Academic Press, 1999, pp 137-144). Briefly, mice were rendered neutropenic prior to infection with 2 doses of cyclophosphamide, and then infected intramuscularly in the thigh with inocula of 10^3-10^5 CFU of either K. pneumo. (ATCC43816) or P. aeruginosa (ATCC27853). Antibiotics or vehicle alone as a negative control were administered twice at 2 hrs and 14 hrs post-infection. The animals were kept neutropenic for the duration of the experiment in order to minimize the effect of white blood cells on the infection such that the microbiological readout measures the in vivo interaction of drugs and bacteria. At 24 hrs post-infection, thighs were harvested, homogenized, and plated to measure the number of CFUs surviving per thigh. Thighs from a subset of animals were also harvested 2 hrs post-infection to record the CFUs present just prior to the first antibiotic treatment (pre-treatment).

E. coli ATCC25922 = assay: MIC by broth microdilution, wild type strain ATCC25922; type: cell-based
Experimental: (§2) Bacterial isolates were cultivated from −70° C. frozen stocks of the indicated strains by overnight passages at 35° C. in ambient air on Mueller-Hinton agar (Beckton Dickinson, Franklin Lakes, N.J.). Minimum Inhibitory Concentrations (MICs) were determined by the broth microdilution method in accordance with the Clinical and Laboratory Standards Institute (CLSI) guidelines. In brief, organism suspensions were adjusted to a 0.5 McFarland standard to yield a final inoculum between 3×10^5 and 7×10^5 colony-forming units (CFU)/mL. Drug dilutions and inocula were made in sterile, cation adjusted Mueller-Hinton Broth (Beckton Dickinson). An inoculum volume of 100 μL was added to wells containing 100 μL of broth with 2-fold serial dilutions of drug. All inoculated microdilution trays were incubated in ambient air at 35° C. for 18-24 hours. Following incubation, the lowest concentration of the drug that prevented visible growth (OD600 nm <0.05) was recorded as the MIC.

[1] = system: P. aeruginosa (ATCC27853); settings: for ΔLogCFU vs 24 hr / Log CFU Mean: 24 hr; for Log CFU Mean: n=5; for in vivo synergy with erythromycin: erythromycin 60 mg/kg
Source text: as §1
This table focuses on the sensitive part of the LpxCi-4 dose response curve (30 mg/kg) by examining the mean log CFU at 0 or 24 hours, as well as the log change in CFU at 24 hours relative to zero hours (“ΔLogCFU vs […]”). Data is given for animals treated with vehicle, LpxCi-4 at 30 mg/kg, a second agent alone at the indicated doses or the combination of LpxCi-4 at 30 mg/kg plus the second agent at the indicated dose. The standard errors for each measurement are also given (n=5 animals/group). By comparing the observed drop in CFU of the combination with the sum of the drop in CFU associated with each of the two agents given separately, one can determine whether the combination is, in fact, synergistic in vivo.

envA+ (D21) E. coli = assay: MIC by broth microdilution, isogenic envA+ strain; type: cell-based
Experimental: as §2

envA1 (D22) E. coli = assay: MIC by broth microdilution, isogenic envA1 mutant strain; type: cell-based; settings: for MIC: Strain envA1 (D21); for Fold decrease in MIC (envA+/envA1): envA+ vs envA1 E. coli
Experimental: as §2

[2] = Pharmacokinetic studies of LpxCi-4 alone or in the presence of vancomycin; type: in vivo; settings: for AUC / Cmax / Tmax / half-life: in vivo, 10 mg/kg
Experimental: This would result in a lower static dose for the LpxC inhibitor and apparent synergy. In order to address this, pharmacokinetic studies of LpxCi-4 either alone or in the presence of vancomycin at 220 mg/kg were performed. […] The half-life (HL_Lambda_z), time to maximum concentration (Tmax), maximal concentration (Cmax), and area under the concentration-time curve (AUC) for LpxCi-4 are provided.

Klebsiella pneumoniae = assay: Checkerboard synergy assay with LpxCi-4; type: cell-based; settings: combination with LpxCi-4
Source text: (§3) One classic method for assessing synergy, referred to as the checkerboard assay, is used to predict the efficacy of antibacterial agents, and is described by Scribner et. al., (Antimicrobial Agents and Chemotherapy 21(6):939-943 (1982)) and in Goodman & Gilman (The Pharmacological Basis of Therapeutics, Sixth Edition, pp. 1097-1098 (1980)). The checkerboard assay involves serial two-fold dilutions of the antibiotics individually and in combination in broth, which is then inoculated with the microorganism to be tested. After incubation, the minimum inhibitory concentration (MIC) of each drug used individually and in combination is determined (N.B., the MIC is the lowest concentration of the drug that inhibits growth in the medium). Synergism is indicated by a decrease in the MIC of each drug when used in combination. Antagonism is indicated by an increase in the MIC of either or both drugs when used in combination. Alternate methods of assessing synergy are reviewed in Greco, et al., Pharmacological Reviews 47(2):[…] (1995), incorporated herein by reference in its entirety.
(§4) Partial or full inhibition of LpxC should compromise the outer membrane and thus allow these synergizing agents to enter the cells and exert an antibacterial effect at concentrations where cells untreated with an LpxC inhibitor are unaffected. As a first step, checkerboard synergy assays for a variety of antibacterial agents were perform with several LpxC inhibitors, on several species of gram negative bacteria.
as §2
(§5) Standard checkerboard assays were performed with a combination of the indicated agents and LpxCi-4. Table 2 provides the FICI calculated according to standard techniques.

Pseudomonas aeruginosa = assay: Checkerboard synergy assay with LpxCi-4; type: cell-based; settings: combination with LpxCi-4 (3936); Pseudomonas aeruginosa (ATCC27853 in text)
Source text: as §3, §4, §2, §5

Escherichia coli = assay: Checkerboard synergy assay with LpxCi-4; type: cell-based; settings: combination with LpxCi-4
Source text: as §3, §4, §2, §5

Yersinia enterocolitica = assay: Checkerboard synergy assay with LpxCi-4; type: cell-based; settings: combination with LpxCi-4
Source text: as §3, §4, §2, §5

[3] = strain 43816, combination agent Rifampin
[4] = first block of Table 5, mg/kg/day b.i.d.: 3936 30, Rif. 30, Azith. 50
[5] = second block of Table 5, mg/kg/day b.i.d.: 3936 30, Eryth. 60, Dapto. 3, Oxacil. 100
[6] = strain 27853, combination agent Rifampin
[7] = strain 27853, combination agent Vanco
[8] = LpxCi-4 (10 mg/kg) + vancomycin (220 mg/kg)

CC(C)(N)[C@H](NC(=O)c1ccc(C#CC#CC2CC2)cc1)C(=O)NO [LpxCi-4, (S)—N-(3-amino-1-(hydroxyamino)-3-methyl-1-oxobutan-2-yl)-4-(cyclopropylbuta-1,3-diynyl)benzamide]
in vivo synergy with rifampin (K. pneumo. (ATCC43816); bacterial strain ATCC43816): in vivo synergy | in vivo synergy with vancomycin (K. pneumo. (ATCC43816); bacterial strain ATCC43816): in vivo synergy | Static Dose, LpxC cmpd (K. pneumo. (ATCC43816); strain 43816, LpxC compound alone): 36 and 33 | Fold Shift Static Dose (K. pneumo. (ATCC43816); [3]): 4x | Static Dose, LpxC in combination (K. pneumo. (ATCC43816); [3]): 9 | Fold Shift Static Dose (K. pneumo. (ATCC43816); strain 43816, combination agent Vanco): 6.6x | Static Dose, LpxC in combination (K. pneumo. (ATCC43816); strain 43816, combination agent Vanco (440 mg/kg/day)): 5 | shift in static dose (K. pneumo. (ATCC43816); with rifampin, K. pneumoniae ATCC43816): 4 fold | MIC (E. coli ATCC25922): 0.015 µg/mL (≈ 0.0442 µM) | ΔLogCFU vs 24 hr [1, 4]: −1.57 | Log CFU Mean [1, 4]: 6.17 | ΔLogCFU vs 24 hr [1, 5]: −0.81 | Log CFU Mean [1, 5]: 6.83 | in vivo synergy with daptomycin ([1]; bacterial strain ATCC27853): does not exhibit in vivo synergy | in vivo synergy with rifampin ([1]; bacterial strain ATCC27853): in vivo synergy | in vivo synergy with vancomycin ([1]; bacterial strain ATCC27853): in vivo synergy | in vivo synergy with erythromycin ([1]; bacterial strain ATCC27853): modest in vivo synergy | in vivo synergy with erythromycin ([1]; bacterial strain ATCC27853, listed as LPxCi-4): only a very modest shift in the dose response curve | in vivo synergy with daptomycin ([1]; bacterial strain ATCC27853, listed as 3936): no measurable in vivo synergy | drop in CFU relative to vehicle ([1]; each agent at 30 mg/kg): 1.57 log | Static Dose, LpxC cmpd ([1]; strain 27853, LpxC compound alone): 60 and 42 and 50 | Static Dose, LpxC in combination ([1]; strain 27853, combination agent Daptomycin): 50 | Fold Shift Static Dose ([1]; strain 27853, combination agent Erythromycin): <1.5x | Static Dose, LpxC in combination ([1]; strain 27853, combination agent Erythromycin (60 mg/kg in text)): 40 | Static Dose, LpxC in combination ([1]; strain 27853, combination agent Oxacillin): 50 | Fold Shift Static Dose [1, 6]: 1.9x | Static Dose, LpxC in combination [1, 6]: 22 | Fold Shift Static Dose [1, 7]: 2.4x | Static Dose, LpxC in combination [1, 7]: 25 | shift in static dose ([1]; with rifampin, P. aeruginosa ATCC27853): 2 fold | MIC (envA+ (D21) E. coli): 0.015 µg/mL (≈ 0.0442 µM) | MIC (envA1 (D22) E. coli): ≦0.004 | Fold decrease in MIC (envA+/envA1) (envA1 (D22) E. coli): ≧4 | AUC [2, 8]: 6870 ng·h/mL | Cmax [2, 8]: 2630 ng/mL | Tmax [2, 8]: 0.25 h | half-life [2, 8]: 3.27 h | AUC ([2]; LpxCi-4 (10 mg/kg) alone): 6030 ng·h/mL | Cmax ([2]; LpxCi-4 (10 mg/kg) alone): 2200 ng/mL | Tmax ([2]; LpxCi-4 (10 mg/kg) alone): 0.5 h | half-life ([2]; LpxCi-4 (10 mg/kg) alone): 2.63 h | PK / AUC of LpxCi-4 in the presence vs absence of vancomycin ([2]; vancomycin at 220 mg/kg, 220 mg/kg): not significantly affected; also recorded: essentially identical

CO[C@@H]1[C@@H](OC(N)=O)[C@@H](O)[C@H](Oc2ccc3c(O)c(NC(=O)c4ccc(O)c(CC=C(C)C)c4)c(=O)oc3c2C)OC1(C)C [Novobiocin, novobiocin]
FICI index (Klebsiella pneumoniae): ≦0.38 | FICI index (Pseudomonas aeruginosa): no effect | FICI index (Escherichia coli): ≦0.25 | FICI index (Yersinia enterocolitica): ≦0.63

CCCCCCCCCCNCCN[C@@]1(C)C[C@H](O[C@H]2[C@H](Oc3c4cc5cc3Oc3ccc(cc3Cl)[C@@H](O)[C@@H](NC(=O)[C@@H](CC(C)C)NC)C(=O)N[C@@H](CC(N)=O)C(=O)N[C@H]5C(=O)N[C@H]3C(=O)N[C@H](C(=O)N[C@H](C(=O)O)c5cc(O)c(CNCP(=O)(O)O)c(O)c5-c5cc3ccc5O)[C@H](O)c3ccc(c(Cl)c3)O4)O[C@H](CO)[C@@H](O)[C@@H]2O)O[C@@H](C)[C@H]1O [Telavancin, telavancin]
MIC (E. coli ATCC25922): > 128 µg/mL | FICI index (Klebsiella pneumoniae): ≦0.31 | FICI index (Pseudomonas aeruginosa): no effect | FICI index (Escherichia coli): no | FICI index (Yersinia enterocolitica): ≦0.5 | MIC (envA+ (D21) E. coli): > 128 µg/mL | MIC (envA1 (D22) E. coli): 16 µg/mL (≈ 9.11 µM) | Fold decrease in MIC (envA+/envA1) (envA1 (D22) E. coli): ≧8
